In experiment [1] the test system is dengue virus type 2. Kind of experiment: Functional CPE-based assay to measure dose dependent changes in antiviral-drug inhibitory efficacy against Dengue virus type 2 New Guinea C in Huh7 cells. Cells are treated with antiviral candidates that are serially diluted. EC50 is reported via analysis of MTT/MTS assay as a readout of CPE. The assay has been performed by National Institute of Allergy and Infectious Diseases. To be noted: Huh-7. Format: organism-based, Homo sapiens. (Tetrazolium dyes change colour on reduction, which living cells bring about.)

The test system of experiment [2] is dengue virus type 2. Kind of experiment: Functional assay to measure dose dependent changes in antiviral-drug inhibitory efficacy against Dengue virus type 2 New Guinea C in Vero E6 miRFP670 cells (cotreated with P-gp inhibitor, CP100356). Cells are treated with antiviral candidates that are serially diluted, following infection, cells are fixed. EC50 is reported via analysis of fluorescence intensity using high-content imager. The …. Format: organism-based, Chlorocebus sabaeus, Vero C1008. To be noted: Dengue virus, Vero C1008; for EC90: Baseline response 0 %, Maximum response 100 %, P-gp concentration 500 nM, P-gp inhibitor CP100356.

Experiment [3] relates to Zika virus. The experiment in a line: Functional CPE-based assay to measure dose dependent changes in antiviral-drug inhibitory efficacy against Zika virus MR766 in Vero E6 miRFP670 cells. Cells are treated with antiviral candidates that are serially diluted. EC50 is reported via analysis of MTS assay as a readout of CPE. The assay has been performed by KU Leuven. The following applies: Zika virus; for EC50: Vero C1008. The class given is organism-based, Chlorocebus sabaeus, Vero C1008.

For experiment [4], the system named is Zika virus. Kind of experiment: EC50 is reported via analysis of immunofluorescence staining. The assay has been performed by Icahn School of Medicine at Mount Sinai. The class given is functional, organism-based, Chlorocebus sabaeus, VeroE6/TMPRSS2. The following applies: Zika virus; for EC90: P-gp concentration 2 uM, P-gp inhibitor Elacidar.
In experiment [5] the test system is dengue virus type 2. Kind of experiment: Functional immunofluorescence assay to measure dose dependent changes in antiviral-drug inhibitory efficacy against Dengue virus type 2 Thailand/16681/84 in Vero E6/TMPRSS2 cells (cotreated with P-gp inhibitor, Elacridar). Cells are treated with antiviral candidates that are serially diluted, following infection, cells are fixed. EC50 is reported via analysis of immunofluorescence staining. The assay has been performed by Icahn School of Medicine at Mount Sinai. Format: organism-based, Chlorocebus sabaeus, VeroE6/TMPRSS2. To be noted: Baseline response 0 %, P-gp concentration 2 uM, P-gp inhibitor Elacidar.

As usually defined, the EC50 is the concentration giving half of the maximal effect. What is called EC90 is the concentration needed for an effect of 90%.

For `CC1(C)Cc2sc(NC(=O)Cc3ccc(S(N)(=O)=O)cc3)c(C#N)c2CN1CC1CCCCC1`, the values for the EC50 in the experiment on dengue virus type 2 [1], with dengue virus type 2 [2] and with Zika virus [3] were below 0.01 µM, below 0.391 µM and above 50 µM, respectively. Moreover, the EC90 in the experiment on dengue virus type 2 [2] (Hill slope -4.912, Maximum measured 6.91 %, Minimum measured 0.005 %, R squared 0.81) is below 0.391 µM; with Zika virus [3] (Vero C1008, Maximum measured -0.002 %, Minimum measured -8.758 %) it was above 50 µM.

`O=C(NCC(F)(F)F)c1cc(Cl)c(F)cc1NS(=O)(=O)c1ccc(Oc2ccccc2Cl)cc1`: the EC50 is above 1.9 µM in the experiment on dengue virus type 2 [1], 3.79 µM in the experiment on dengue virus type 2 [2] and above 50 µM with Zika virus [3]. Besides, the EC90 in the experiment on dengue virus type 2 [2] (EC90 CI (lower) 2.885 uM, EC90 CI (upper) 3.374 uM, Hill slope -11.236, Maximum measured 107.639 %, Minimum measured 0.022 %, R squared 0.991) was 4.61 µM; in the experiment on Zika virus [3] (Vero C1008, Maximum measured -0.734 %, Minimum measured -10.955 %), above 50 µM.

Take `CCCC[C@H](NC(C)=O)C(=O)N[C@H](C(=O)NCc1ccc(C(N)=O)cc1)c1ccc(OCc2ccccc2)cc1`: the EC50 in the experiment on Zika virus [4] (VeroE6/TMPRSS2) is above 50 µM; with dengue virus type 2 [1], 5.3 µM. The EC90 with Zika virus [4] (VeroE6/TMPRSS2, Maximum measured 173.346 %, Minimum measured 74.645 %) was above 50 µM; with Zika virus [4] (VeroE6/TMPRSS2, Baseline response 0 %, Hill slope 0.304, Maximum measured 106.185 %, Maximum response 100 %, Minimum measured 70.235 %, R squared 0.184), above 50 µM; in the experiment with dengue virus type 2 [5] (Hill slope -0.583, Maximum measured 72.286 %, Maximum response 50 %, Minimum measured 22.28 %, R squared 0.087) it was above 50 µM; in the experiment on dengue virus type 2 [5] (Dengue virus, VeroE6/TMPRSS2, Hill slope -0.364, Maximum measured 95.574 %, Maximum response 100 %, Minimum measured 8.045 %, R squared 0.69), above 50 µM.

The values above are taken from ChEMBL document CHEMBL5661943, “ASAP - In vitro antiviral effect” (2024).
